How the values were obtained:
[1] = test system: Candida albicans; assay: Time needed to meet disinfection requirements, Candida albicans; type: cell-based; details: concentration: ethanol 70%, iodophor 40 mg/L, Embodiment 11 stock
[2] = test system: Staphylococcus aureus; assay: Time needed to meet disinfection requirements, Staphylococcus aureus; type: cell-based; details: concentration: ethanol 70%, benzalkonium bromide 1:1000, 1210 250 ppm, Embodiment 11 stock
[3] = test system: Mycobacterium tuberculosis; details: concentration: ethanol 70%
[4] = test system: Pseudomonas auerginosa; assay: Time needed to meet disinfection requirements, Pseudomonas aeruginosa; type: cell-based; details: concentration: ethanol 70%, 1210 500 ppm, Embodiment 11 stock
[5] = test system: Escherichia coli; assay: Time needed to meet disinfection requirements, Escherichia coli; type: cell-based; details: concentration: ethanol 70%, benzalkonium bromide 1:1000, 1210 250 ppm, Embodiment 11 stock
[6] = test system: pathogenic bacteria; details: general statement on antibacterial properties; cited from earlier work

Row | Molecule | Time needed for meeting disinfection requirements [1] [min] | Time needed for meeting disinfection requirements [2] [min] | Time needed for meeting disinfection requirements [3] [min] | Time needed for meeting disinfection requirements [4] [min] | Time needed for meeting disinfection requirements [5] | bactericidal concentration [6] [mol/L]
1 | CCO [Ethanol] | 1 | 5 | 5 | 1 | 0.5. min | –
2 | O=C(O)CCCCCCCC(=O)O [Azelaic acid, azelaic acid] | – | – | – | – | – | 1
3 | Benzalkonium bromide | – | 5 | – | – | 10 min | –

— patent publication US10743543B2, “Botanical disinfection composition, disinfectant and preparation method thereof” (priority 2016, dated 2020)
